Measured values from US20060089410A1, “Combination of chemotherapeutic drugs for increasing antitumor activity” (Titan Pharmaceuticals, Inc., priority 2002, published 2006).
Where a name gives a salt, the structure may show the parent alone. Read-outs that look alike come from different tables or passages of the source.

How the values were obtained:
[1] = test system: Calu-6 anaplastic lung carcinoma cells; experiment: Crystal violet microtiter assay, Pivanex then cytotoxic drug, Calu-6; assay type: cell-based; settings: Pivanex 0 μM
Method: (§1) T24 Bladder transitional carcinoma cells, Calu-6 anaplastic lung carcinoma cells, and SK-MES-1 squamous lung cell carcinoma cell cultures were purchased from the American Type Culture Collection (Manassas, Va.). All cell lines were cultured in RPMI-1640 with 10% fetal calf serum. For culture in microtiter dishes, cells were plated at a density of 10^4 cells/well and incubated at 37° C., 5% CO2 overnight.
(§2) After overnight incubation, drugs were added to wells in quadruplicate and incubated for 6 to 96 hours in the presence or absence of the oxyalkylene containing compound. […] the media was removed, fresh media were added with cytotoxic drug, and the cultures were incubated for another 6 hours.
(§3) The wells were then washed and medium without drug was added to each well. Microtiter plates were subsequently incubated for an additional 3 days before cell density was determined by a Crystal Violet Assay. Some cultures were alternatively fixed in methanol and stained with hematoxylin and eosin (H&E) stain for 5 minutes prior to microphotography.
(§4) PIVANEX (pivaloyloxymethyl butyrate) was obtained from Titan Pharmaceuticals Inc. (South San Francisco, Calif.) and was admixed with 0.05% Intralipid™ (Fresenius Kabi, Clayton, N.C.) prior to addition to culture media. The cytotoxic drugs gemcitabine (Gemzar; Eli Lilly and Co., Indianapolis, Ind.), cisplatin (Platinol, Bristol-Myers Squibb Co., Princeton, N.J.), paclitaxel (Taxol; Bristol-Myers Squibb Co., Princeton, N.J.), and docetaxel (Taxotere, Aventis Pharmaceuticals Products, Inc., Bridgewater, N.J.) were studied with PIVANEX.
(§5) Cells in microtiter wells were rinsed with PBS and fixed in two volumes of 100% cold methanol for 5 minutes. One volume of 0.5% crystal violet in 20% methanol was added and the attached cells stained for 10 minutes. The cells were then washed and crystal violet was eluted with 0.1 N sodium citrate buffer and read on an ELISA plate reader at 490 nm.

[2] = test system: T24 Bladder transitional carcinoma cells; experiment: Crystal violet microtiter assay, Pivanex then cytotoxic drug, T24; assay type: cell-based, human; settings: Pivanex 0 μM
Method: as §1, §2, §3, §4, §5

[3] = test system: H522 NSCLC cell line; experiment: MTS growth inhibition assay, sequencing of Pivanex and docetaxel, H522; assay type: cell-based, human; settings: after 24 hour exposure
Method: Human Non-Small Cell Lung Carcinoma Cell Lines, H522 and NCI-H23, were evaluated for growth inhibitory activity of Pivanex, alone and in combination with the standard chemotherapeutic agent, docetaxel. Cells were treated for three days with Pivanex followed by 24 hours of exposure to docetaxel or the cells were treated for 24 hours with docetaxel followed by three days of exposure to Pivanex. The cell growth inhibition was judged at the end of the 4-day experiments by a standard staining technique using MTS tetrazolium vital stain. […]
Exponentially growing cells were harvested with trypsin (0.05%)/EDTA (0.02%) and re-suspended in fresh medium containing 10% FBS. […] Absorbance was documented on a Dynex HD microplate reader at a wavelength of 490 nm. IC50 values were determined by using the Prism® GraphPad software from 3 different tests, each of which involved 4 replicates for each dose determination. The data are presented as percent growth inhibition, where 0% represents the mean value in wells to which only vehicle (0.1% DMSO) was added and was calculated as follows: % Growth Inhibition=(1−(ODtest/ODvehicle))×100 where ODtest is the optical density of the tested sample, OD vehicle is the optical density of the vehicle in which each respected drug is dissolved. […]

[4] = test system: H23 (NCI-H23) NSCLC cell line; experiment: MTS growth inhibition assay, sequencing of Pivanex and docetaxel, H23; assay type: cell-based, human; settings: after 24 hour exposure
[5] = test system: SK-MES-1 squamous lung cell carcinoma cell; experiment: Crystal violet microtiter assay, Pivanex then cytotoxic drug, SK-MES-1; assay type: cell-based; settings: Pivanex 0 μM
Method: as §1, §2, §3, §4, §5

[6] = cited from earlier work
[7] = test system: refractory acute myelogenous leukemia in relapse; settings: child, 0.5 g/kg/day; cited from earlier work
[8] = test system: leukemic cells isolated from myelogenous leukemic patients; settings: in vitro

Which results are given for `Nc1ccn([C@@H]2O[C@H](CO)[C@@H](O)C2(F)F)c(=O)n1` [Gemcitabine, gemcitabine]?
Calu-6 cancer cell viability (A^490 Absorbance) ([1]; gemcitabine 25 nM): 0.587; Calu-6 cancer cell viability (A^490 Absorbance) ([1]; gemcitabine 50 nM): 0.466; Calu-6 cancer cell viability (A^490 Absorbance) ([1]; gemcitabine 100 nM): 0.456; Calu-6 cancer cell viability (A^490 Absorbance) ([1]; gemcitabine 200 nM): 0.403; T24 cancer cell viability (A^490 Absorbance) ([2]; gemcitabine 10 nM): 0.48; T24 cancer cell viability (A^490 Absorbance) ([2]; gemcitabine 50 nM): 0.422

Which “Calu-6 cancer cell viability (A^490 Absorbance)” value (from here on “Calu-6 cancer cell viability”) ([1]; docetaxel 25 nM) does the source give for `CC(=O)O[C@@]12CO[C@@H]1C[C@H](O)[C@@]1(C)C(=O)[C@H](O)C3=C(C)[C@@H](OC(=O)[C@H](O)[C@@H](NC(=O)OC(C)(C)C)c4ccccc4)C[C@@](O)([C@@H](OC(=O)c4ccccc4)[C@H]21)C3(C)C` [Docetaxel, docetaxel] here?
Its value is 0.219.

What about the “Calu-6 cancer cell viability” value ([1]; docetaxel 50 nM) of the same compound?
The value was 0.183.

What about the “Calu-6 cancer cell viability” value ([1]; docetaxel 100 nM) of the same compound?
The value was 0.174.

What about the “Calu-6 cancer cell viability” value ([1]; docetaxel 200 nM) of the same compound?
The value was 0.148.

What about the “cell growth with agent alone” value [3] of the same compound?
The value was “steep increase in H522 cell growth”.

And the “cell growth with agent alone” value [4]?
The value was “steep increase in H23 cell growth”.

Which results are given for `CC(=O)O[C@H]1C(=O)[C@@]2(C)[C@H]([C@H](OC(=O)c3ccccc3)[C@]3(O)C[C@H](OC(=O)[C@H](O)[C@@H](NC(=O)c4ccccc4)c4ccccc4)C(C)=C1C3(C)C)[C@]1(OC(C)=O)CO[C@@H]1C[C@@H]2O` [Paclitaxel, paclitaxel, reference compound]?
SK-MES-1 cancer cell viability (A^490 Absorbance) ([5]; paclitaxel 25 μM): 0.655; SK-MES-1 cancer cell viability (A^490 Absorbance) ([5]; paclitaxel 50 μM): 0.627; SK-MES-1 cancer cell viability (A^490 Absorbance) ([5]; paclitaxel 100 μM): 0.42

For `N.N.[Cl][Pt][Cl]` [Cisplatin, cisplatin, reference compound], which “SK-MES-1 non-small cancer cell viability (A^490 Absorbance)” value ([5]; cisplatin 10 μM) is on record?
The value was 1.562.

And the “SK-MES-1 non-small cancer cell viability (A^490 Absorbance)” value ([5]; cisplatin 20 μM)?
Its value is 1.477.

And the “Calu-6 cancer cell viability” value ([1]; cisplatin 5 μM)?
The value was 0.557.

What about the “Calu-6 cancer cell viability” value ([1]; cisplatin 10 μM) of the same compound?
The value was 0.328.

And the “Calu-6 cancer cell viability” value ([1]; cisplatin 20 μM)?
Its value is 0.238.

What about the “Calu-6 cancer cell viability” value ([1]; cisplatin […]) of the same compound?
Its value is 0.608.

What about the “T24 cancer cell viability (A^490 Absorbance)” value (shortened to “T24 cancer cell viability”) ([2]; cisplatin 5 μM) of the same compound?
Its value is 0.434.

And the “T24 cancer cell viability” value ([2]; cisplatin 10 μM)?
The value was 0.404.

And the “T24 cancer cell viability” value ([2]; cisplatin 20 μM)?
Its value is 0.25.

What about the “T24 cancer cell viability” value ([2]; cisplatin […]) of the same compound?
The value was 0.486.

For `CCCC(=O)O` [butyric acid/salts, butyric acid], which toxicity ([6]; child with refractory acute myelogenous leukemia in relapse, 0.5 g/kg/day) is on record?
The toxicity was “without detectable toxic effects”.

And the toxicity ([6]; clinical trials with high dosages)?
The toxicity was “no toxicity”.

And the “adverse reaction in clinical follow up” value ([6]; patient with acute myelogenous leukemia in relapse, 1.0 g/kg/day for 10 days and 1.5 g/kg/day for 6 days)?
The value was “no adverse reaction”.

What about the toxicity ([6]; patients with neuroblastoma, doses of up to 10 g/day) of the same compound?
Its toxicity is “no clinically detectable toxicity”.

What about the clinical response [7] of the same compound?
Its clinical response is “partial and temporary remission”.

What about the “cytotoxic and cytodifferentiating potency compared with retinoic acid, 1, 25-dihydroxy vitamin D and cytosine arabinoside” value [8] of the same compound?
Its value is “most potent cytotoxic and cytodifferentiating agent”.
